Our source for the TGI values is PubChem BioAssay (NCI).

Holding throughout (assay): NCI tumour cell line growth inhibition, 48 h
Assay [1] deals with ACHN renal.
The subject of assay [2] is M14 melanoma.
Assay [3] relates to MCF7 breast.
In assay [4] the test system is MDA-MB-231 breast.
For assay [5], the system named is OVCAR-3 ovarian.
Assay [6] concerns OVCAR-5 ovarian.
Assay [7] has as its system PC-3 prostate.
Assay [8] deals with SK-MEL-28 melanoma.
The test system of assay [9] is SNB-19 CNS.
The test system of assay [10] is SW-620 colon.
In assay [11] the test system is U251 CNS.
Assay [12] relates to RPMI-8226 leukemia.

SMILES strings stand for the structures.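 Following 48 hours of exposure in 96-well plates, responses at five concentrations were used to interpolate endpoints linearly. TGI marks complete inhibition of growth.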

On to `C[C@]12CCC(=O)C=C1CC[C@@H]1C2CC[C@]2(C)Nc3c(ncn3-c3ccc(F)cc3)CC12` (some centres undefined), for which the TGI in [1] was over 100 µM; in [2], over 100 µM; in [3], 74 µM; in [4], over 100 µM; in assay [5] it was over 100 µM; in assay [6], over 100 µM. Besides, the TGI in assay [7] is over 100 µM; in [8], over 100 µM; in [9] it was over 100 µM; in assay [10], over 100 µM; in assay [11], 95.9 µM.

For the molecule `Cc1cc(C#N)c(Nc2c(C)cccc2[N+](=O)[O-])s1`, the TGI in assay [1] was over 100 µM; in [2], over 100 µM; in assay [4] it was 79.4 µM; in [5], over 100 µM; in assay [6], over 100 µM; in assay [7], 54.4 µM. Moreover, the TGI in assay [12], in assay [8], in assay [9], in assay [10] and in assay [11] was over 100 µM each time.

With `Cc1n[nH]c(=O)n1N1C(=O)c2ccccc2C1=O`, the TGI in assay [1], in assay [2], in [3], in assay [4], in assay [5] and in assay [6] was over 100 µM in each case. In addition, the TGI in assay [7], in assay [8], in assay [9], in assay [10] and in [11] was over 100 µM each time.

Take `COC1(C)C=NCC(C)(C)NC(=O)C(C)(OC)C=NCC(C)(C)NC1=O` (centres undefined): the TGI in assay [1], in assay [2], in [3], in assay [4], in assay [7] and in [12] was over 10 µM in each case. The TGI in [8], in assay [9], in [10] and in [11] was over 10 µM in each case.

`Cc1nn(C)c2c1C(=O)N(C)CC(=O)N2C`: the TGI in [1], in assay [2], in assay [3], in [5], in assay [6] and in assay [7] was over 100 µM each time. In addition, the TGI in assay [12], in [8], in assay [9], in assay [10] and in assay [11] was over 100 µM throughout.

With `CCc1n[nH]c(=O)n1NC(=O)/C=C\C(=O)O`, the TGI in assay [2], in assay [3], in assay [4], in [5], in assay [6] and in [7] was over 100 µM in each case. In assay [11], this molecule registered a TGI of over 100 µM.

For `CC1OC(OC2CC(O)(C(=O)CO)Cc3c(O)c4c(c(O)c32)C(=O)c2ccccc2C4=O)CC(N)C1O` (centres undefined), the TGI was 0.134 µM in assay [1]; 0.229 µM in assay [2]; 7.4 µM in assay [4]; 1.32 µM in assay [5]; 0.721 µM in [6]; 0.954 µM in assay [7]. Moreover, the TGI in assay [12] was 0.235 µM; in assay [8], 0.368 µM; in assay [9] it was 0.239 µM; in [10] it was 2.48 µM; in assay [11], 0.188 µM.

Take `CC(=O)OCc1cn(S(=O)(=O)c2ccc(C)cc2)cn1`: the TGI is over 100 µM in [1]; over 100 µM in assay [2]; over 100 µM in [3]; over 100 µM in assay [4]; 85.9 µM in assay [5]; over 100 µM in assay [7]. Moreover, the TGI in [12], in [8], in assay [9], in [10] and in assay [11] was over 100 µM throughout.

Regarding `CC[C@@]1(O)C(=O)OCc2c1cc1n(c2=O)Cc2c-1nc1ccccc1c2/C=N\NC(=O)C(C)N` (some centres undefined), the TGI in [2] was 5.05 µM; in assay [3] it was over 66.9 µM; in assay [4], over 100 µM; in [5] it was over 100 µM; in assay [6] it was over 100 µM; in assay [7], over 100 µM. The TGI is over 100 µM in assay [8], 58.7 µM in assay [9], over 100 µM in [10] and 31.6 µM in assay [11].

On to `CCNc1ncnc2n[nH]nc12`, for which the TGI in [1], in assay [2], in [3], in assay [4], in assay [5] and in assay [7] was over 100 µM throughout. Also, the TGI in [12], in assay [8], in [9], in assay [10] and in [11] was over 100 µM throughout.

On to `c1ccc2c(c1)C(=Nc1ccc(N=C3c4ccccc4-c4ccccc43)cc1)c1ccccc1-2`, for which the TGI in assay [2], in [3], in [4], in assay [5], in [6] and in assay [7] was over 100 µM in each case. For the same molecule, the TGI in assay [12], in [9], in assay [10] and in assay [11] was over 100 µM in each case.

For `C/C(=N\Nc1nc2ccccc2o1)c1ccncn1`, the TGI in [1] is over 100 µM; in assay [3], over 43.8 µM; in assay [4] it was 97.1 µM; in [6], over 100 µM; in [7], 36.6 µM; in [8] it was over 100 µM. Further, the TGI is over 100 µM in assay [9], over 39.3 µM in assay [10] and over 36.4 µM in [11].

Turning to `COC(=O)[C@@H]1C[C@]2(CC=C(C)C)c3ccccc3N(S(=O)(=O)c3ccccc3)[C@@H]2N1C(=O)OC`, the TGI was over 100 µM in [1]; 48.5 µM in [3]; over 100 µM in assay [4]; over 100 µM in assay [5]; over 100 µM in [6]; over 100 µM in assay [7]. The TGI in assay [12] is 42.6 µM; in assay [8], over 100 µM; in assay [9], over 100 µM; in assay [10] it was over 100 µM; in assay [11] it was 41.8 µM.
